The source of these data is ChEMBL document CHEMBL4706529, “Design, synthesis and in vitro cell-free/cell-based biological evaluations of novel ERCC1-XPF inhibitors targeting DNA repair pathway” (Eur J Med Chem, 2020).

Activity calls are given as the source filed them. The calls are words filed in the database; no cut-off is given here.

For series [1], the target named is T1, DNA excision repair protein ERCC-1/DNA repair endonuclease XPF (Homo sapiens) (UniProt P07992+Q92889). In words: Inhibition of human His-tagged ERCC1-XPF expressed in Escherichia coli BL21 (DE3) cells using 6-FAM-5'CAGCGCTCGG(20T)CCGAGCGCTG-3'-dabcyl at 10 uM measured for 12 mins by fluorescence incision assay.
Series [2] concerns HCT-116. In words: Cytotoxicity against human HCT-116 cells assessed as reduction in cell viability at >= 5 uM after 3 days. The format is cell-based. The conditions noted are these: hct-116, 72 h, time 3 day.
Series [3] deals with HCT-116. In words: Antiproliferative activity against human UV-radiated HCT-116 cells assessed as sensitizing capacity by measuring reduction in cell survival at 2 uM by clonogenic survival assay. Format: functional, cell-based.
The nature of series [4]: Cytotoxicity against human HCT-116 cells assessed as cell viability at 5 uM after 3 days relative to control. The format is cell-based. As to conditions: time 3 day, read-out: Activity.
Series [5] concerns the target T2, DNA excision repair protein ERCC-1/DNA repair endonuclease XPF (Homo sapiens, UniProt P07992+Q92889).
T2 sequence (P07992 whole entry): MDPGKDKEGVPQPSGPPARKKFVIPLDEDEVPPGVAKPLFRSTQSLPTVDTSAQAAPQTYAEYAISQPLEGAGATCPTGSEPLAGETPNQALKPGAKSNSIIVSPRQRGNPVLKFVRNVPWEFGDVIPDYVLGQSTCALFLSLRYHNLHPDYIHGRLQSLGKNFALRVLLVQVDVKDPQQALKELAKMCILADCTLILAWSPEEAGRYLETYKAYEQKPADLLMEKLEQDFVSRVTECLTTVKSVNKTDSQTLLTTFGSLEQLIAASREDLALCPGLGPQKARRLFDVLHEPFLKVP
T2 sequence (Q92889 whole entry): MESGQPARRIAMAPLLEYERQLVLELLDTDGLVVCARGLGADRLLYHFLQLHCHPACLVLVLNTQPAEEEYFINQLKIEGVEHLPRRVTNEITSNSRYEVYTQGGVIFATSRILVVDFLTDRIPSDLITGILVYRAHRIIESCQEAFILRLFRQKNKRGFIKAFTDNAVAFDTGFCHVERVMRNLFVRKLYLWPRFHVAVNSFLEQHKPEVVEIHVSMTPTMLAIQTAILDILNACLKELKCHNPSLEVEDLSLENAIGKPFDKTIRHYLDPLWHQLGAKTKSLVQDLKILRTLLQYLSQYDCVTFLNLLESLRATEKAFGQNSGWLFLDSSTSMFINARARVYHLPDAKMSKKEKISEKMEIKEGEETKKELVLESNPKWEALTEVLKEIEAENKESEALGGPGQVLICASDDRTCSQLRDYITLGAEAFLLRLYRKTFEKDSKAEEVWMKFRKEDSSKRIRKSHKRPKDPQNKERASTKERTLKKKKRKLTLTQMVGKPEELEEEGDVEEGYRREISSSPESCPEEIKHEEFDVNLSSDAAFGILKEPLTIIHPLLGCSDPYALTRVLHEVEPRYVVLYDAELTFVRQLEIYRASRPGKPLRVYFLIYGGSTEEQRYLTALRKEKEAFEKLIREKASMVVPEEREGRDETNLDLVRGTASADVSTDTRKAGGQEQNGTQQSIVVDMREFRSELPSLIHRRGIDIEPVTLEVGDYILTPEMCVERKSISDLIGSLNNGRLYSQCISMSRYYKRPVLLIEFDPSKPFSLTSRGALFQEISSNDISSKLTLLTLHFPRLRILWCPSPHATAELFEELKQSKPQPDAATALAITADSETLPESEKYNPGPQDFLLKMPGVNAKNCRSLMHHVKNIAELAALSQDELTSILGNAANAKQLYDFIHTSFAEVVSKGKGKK
Description: Binding affinity to His-tagged human ERCC1-XPF expressed in Escherichia coli BL21 (DE3) cells by steady-state fluorescence assay.

The nature of series [6]: Binding affinity to 6-FAM-5'CAGCGCTCGG(20T)CCGAGCGCTG-3'-dabcyl (unknown origin) measured for 12 mins by fluorescence incision assay.
In series [7] the target is T2, DNA excision repair protein ERCC-1/DNA repair endonuclease XPF. In words: Inhibition of human His-tagged human ERCC1-XPF expressed in Escherichia coli BL21 (DE3) cells using 6-FAM-5'CAGCGCTCGG(20T)CCGAGCGCTG-3'-dabcyl measured for 12 mins by fluorescence incision assay.
For series [8], the system named is HCT-116. Description: Antiproliferative activity against human HCT-116 cells assessed as sensitizing capacity by measuring reduction in cell survival at 2 uM in presence of cyclophosphamide by clonogenic survival assay. Format: functional, cell-based.
Series [9] concerns HCT-116. In words: Antiproliferative activity against human UV-radiated HCT-116 cells assessed as sensitizing capacity by measuring reduction in cell survival at 2 to 4 uM by clonogenic survival assay. The format is functional, cell-based. As to conditions: dose 2-4 µM.
Series [10] concerns the target T1, DNA excision repair protein ERCC-1/DNA repair endonuclease XPF (Homo sapiens). In words: Inhibition of ERCC1-XPF in UV-radiated human HCT-116 cells assessed as cyclobutane pyrimidine dimer DNA repair at 2 uM preincubated for 1 hr followed by 8 J/m2 UV-C radiation and measured up to 24 hrs by IgG-Alexafluor antibody based fluorescent microscopic analysis (reference value: 16%). As to conditions: time hrs <=25. Also noted: scale not given: the % may be the effect or the level left. Format: cell-based.

In series [11] the test system is HCT-116. In words: Cytotoxicity against human HCT-116 cells assessed as reduction in cell viability at 2 uM after 3 days relative to control. The format is cell-based. As to conditions: hct-116, 72 h, time 3 day.
Series [12] concerns the target T1, DNA excision repair protein ERCC-1/DNA repair endonuclease XPF (Homo sapiens). Description: Binding affinity to His-tagged human ERCC1-XPF expressed in Escherichia coli BL21 (DE3) cells at 4 uM by steady-state fluorescence assay relative to control.
The subject of series [13] is HCT-116. In words: Antiproliferative activity against human HCT-116 cells assessed as sensitizing capacity by measuring reduction in cell survival at 4 uM in presence of cyclophosphamide by clonogenic survival assay. The format is functional, cell-based.
Series [14] relates to HCT-116. In words: Cytotoxicity against human HCT-116 cells assessed as reduction in cell viability at 5 to 20 uM after 3 days. Format: cell-based. The conditions noted are these: hct-116, 72 h, dose 5-20 µM, time 3 day.

As for `COc1ccc2nc3cc(Cl)ccc3c(Nc3ccc(O)c(CN4CCN(C)CC4)c3)c2c1`, the inhibition entry in [1] was “Active”. Moreover, the Activity result in series [2] is reported as “Toxic”. Further, the result in series [3] was Active. The viability at 72 h, 5 µM in series [4] amounted to 35%. The Kd in [5] was 140 nM.

As to `COc1cc(C#N)c(Nc2c3ccc(Cl)cc3nc3ccc(O)cc23)cc1OC`, the inhibition result in series [1] was “Active”.

For the molecule `Oc1ccc2nc3cc(Cl)ccc3c(Cl)c2c1`, in [1], the inhibition entry was “Active”.

As for `COc1ccc2c(Cl)ccnc2c1`, the inhibition result in [1] was “inactive”.

Take `CN1CCN(Cc2cc(Nc3c4ccc(Cl)cc4nc4ccc(O)cc34)ccc2O)CC1`: in series [1], the inhibition result is “Active”.

`COc1ccc2nc3cc(Cl)ccc3c(Cl)c2c1`: the inhibition result in [1] was “inactive”.

As to `CN1CCN(Cc2cc(N)ccc2O)CC1`, the inhibition entry in series [1] was “inactive”.

Regarding `COc1ccc2c(Nc3ccc(O)c(CN(C)C)c3)ccnc2c1`, the inhibition result in [1] is “Active”.

`CN(C)CCN1CCN(Cc2cc(Nc3c4ccc(Cl)cc4nc4ccc(O)cc34)ccc2O)CC1`: in series [1], the inhibition result was “Active”. For the same molecule, the Kd was 1050 nM in series [6] and 85 nM in [5]. The same molecule showed an IC50 in [7] of 490 nM. The outcome in series [8] and in [9] was Active. Besides, the Activity in series [10] worked out at 35%; in [11], 95%; in series [12], 25%.

As for `CN1CCN(Cc2cc(Nc3c4ccc(Cl)cc4nc4ccc(OCc5ccccc5)cc34)ccc2O)CC1`, the inhibition entry in series [1] was “Active”. The same molecule had a Kd in series [6] of 200 nM. Also, the outcome in [13] was inactive. Further, the values for the Activity result in series [14] and in series [12] were “Non-Toxic” and < 2%, respectively.

In the case of `COc1ccc2c(Nc3ccc(O)cc3)ccnc2c1`, the inhibition entry in series [1] is “inactive”.

For the molecule `COc1ccc2c(Nc3ccc(O)c(CN4CCN(CCN(C)C)CC4)c3)ccnc2c1`, the inhibition result in [1] was “Active”.

In general, Kd refers to a measure of binding affinity in units of concentration. A word on the IC50: it is the midpoint of a concentration-inhibition curve.
